How the values were obtained:
[1] = target: T1, Therminator II (Thermococcus sp. 9oN-7, UniProt Q56366, D141A/E143A/Y409V/A485L, form not given); experiment: primer extension, denaturing PAGE and mass spectrometry; type: biochemical; conditions: templates T1 and T2, primer P3; 72°C
T1 construct: gene pol; commercial engineered variant of 9°N DNA polymerase (New England Biolabs)

[2] = target: T2, Klenow large fragment (Escherichia coli, UniProt P00582); experiment: as above; type: biochemical; conditions: templates T1 and T2, primer P3; 37°C
T2 construct: gene polA; large (Klenow) fragment of DNA polymerase I, without the N-terminal 5'-3' exonuclease domain; commercial (New England Biolabs)
T2 sequence (P00582 324-928 limits assumed): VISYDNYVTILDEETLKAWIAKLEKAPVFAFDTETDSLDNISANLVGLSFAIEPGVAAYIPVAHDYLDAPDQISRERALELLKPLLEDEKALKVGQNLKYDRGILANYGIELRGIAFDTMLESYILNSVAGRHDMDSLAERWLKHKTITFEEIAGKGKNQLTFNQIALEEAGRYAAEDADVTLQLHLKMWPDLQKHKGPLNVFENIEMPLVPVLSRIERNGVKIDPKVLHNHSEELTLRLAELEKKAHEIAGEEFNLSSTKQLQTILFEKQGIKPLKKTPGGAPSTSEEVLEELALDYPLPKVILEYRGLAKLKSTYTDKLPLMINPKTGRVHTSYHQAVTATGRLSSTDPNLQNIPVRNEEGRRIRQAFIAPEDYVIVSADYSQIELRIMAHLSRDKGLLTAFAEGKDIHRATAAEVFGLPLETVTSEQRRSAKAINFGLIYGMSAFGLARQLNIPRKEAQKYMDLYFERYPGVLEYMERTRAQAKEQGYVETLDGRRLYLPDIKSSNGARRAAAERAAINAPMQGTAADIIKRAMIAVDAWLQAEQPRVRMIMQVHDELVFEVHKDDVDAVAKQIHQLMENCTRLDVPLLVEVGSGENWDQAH

T1 sequence (Q56366 whole entry D141A/E143A/Y409V/A485L, form open): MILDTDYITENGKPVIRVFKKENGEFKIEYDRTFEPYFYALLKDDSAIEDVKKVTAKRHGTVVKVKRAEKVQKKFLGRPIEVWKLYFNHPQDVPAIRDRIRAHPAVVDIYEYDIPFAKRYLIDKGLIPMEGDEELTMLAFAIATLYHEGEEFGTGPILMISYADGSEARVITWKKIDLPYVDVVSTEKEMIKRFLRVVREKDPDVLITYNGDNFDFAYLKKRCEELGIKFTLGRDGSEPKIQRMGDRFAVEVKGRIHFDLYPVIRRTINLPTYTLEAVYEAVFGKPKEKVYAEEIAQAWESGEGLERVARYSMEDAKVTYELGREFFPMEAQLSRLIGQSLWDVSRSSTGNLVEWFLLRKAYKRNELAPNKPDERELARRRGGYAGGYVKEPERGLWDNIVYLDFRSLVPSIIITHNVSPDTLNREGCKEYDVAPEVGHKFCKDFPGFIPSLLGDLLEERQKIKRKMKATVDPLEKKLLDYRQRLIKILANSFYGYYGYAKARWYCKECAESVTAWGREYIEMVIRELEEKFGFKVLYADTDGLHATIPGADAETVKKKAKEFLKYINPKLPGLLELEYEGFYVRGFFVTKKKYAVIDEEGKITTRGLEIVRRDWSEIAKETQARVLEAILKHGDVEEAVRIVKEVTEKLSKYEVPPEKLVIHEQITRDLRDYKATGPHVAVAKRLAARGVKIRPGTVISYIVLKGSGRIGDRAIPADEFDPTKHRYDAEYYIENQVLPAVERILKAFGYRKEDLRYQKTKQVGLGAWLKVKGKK

[N-]=[N+]=NCCCCCC(=O)NCC#Cc1cn([C@H]2C[C@H](O)[C@@H](COP(=O)(O)OP(=O)(O)OP(=O)(O)O)O2)c(=O)[nH]c1=O [AHP dUTP]
primer extension, denaturing PAGE and mass spectrometry [1]: all four polymerases successfully incorporate AHP dUTP in the presence of templates T1 and T2 | primer extension, denaturing PAGE and mass spectrometry [2]: all four polymerases successfully incorporate AHP dUTP in the presence of templates T1 and T2

From publication PMC4856977, “Efficient enzymatic synthesis and dual-colour fluorescent labelling of DNA probes using long chain azido-dUTP and BCN dyes” (Nucleic Acids Research, 2016)
